From publication PMC3093627 (Research in Pharmaceutical Sciences, 2010)

Experiments:
[1] = system: morphine brain distribution; details: rats; cited from earlier work
[2] = system: MDCK II cells; details: probenecid 10 μM, d-glucose 5 μM, digoxin 5 μM, M6G 100 μg/ml, cyclosporin 10 μM
Method: Madin-Darby Canine Kidney epithelial cell lines (MDCK-II, passages 3-7), and MDCK I-MDR (MDCK-PGP or MDCK WT, passages)([6]–[10]) were purchased from Borst- Amsterdam. MDCK-PGP is a MDCK-II recombinant clone containing the human MDR-I PGP gene.
When cell growth and cell number were sufficient, the cells were transferred into the transwells. The number of cells in each well was calculated using Eq. 1
In 48/case plates, with area of 0.3318 Cm^2for each insert, the required cells per insert were 13,272 cells. This number of cells was dispensed in 0.25 ml media for each insert and the cells suspension was poured into apical chambers of the inserts. Each treatment group comprised 4 replicates. One ml of cell free media was added to basal chambers. […]
After completing the incubation period, TEER of each Transwell inserts was measured using an EVOM epithelial voltammeter (WIP, Sarasota, FL) and the Transwell inserts were distributed evenly between treatment groups, based on the TEER measurement. […] The corrected cumulative concentrations of drug were determined based on the amount of removed and added buffer in each series of wells at each interval and the corrected concentrations were used for calculating the apparent permeability coefficient (ρ) according to the Eq. 2: […]

SMILES: COc1cc2c(cc1OC)CN(CCc1ccc(NC(=O)c3cccc4c(=O)c5cccc(OC)c5[nH]c34)cc1)CC2 [GF120918]
- Reduction of morphine brain distribution [1]: 42%

SMILES: CN1CC[C@]23c4c5ccc(O)c4O[C@H]2[C@@H](O[C@@H]2O[C@H](C(=O)O)[C@@H](O)[C@H](O)[C@H]2O)C=C[C@H]3[C@H]1C5 [M6G, morphine 6 glucoronide]
- Effect on morphine permeability via MDCK II cells [2]: no significant effects

SMILES: C[C@H]1O[C@@H](O[C@H]2[C@@H](O)C[C@H](O[C@H]3[C@@H](O)C[C@H](O[C@H]4CC[C@@]5(C)[C@H](CC[C@@H]6[C@@H]5C[C@@H](O)[C@]5(C)[C@@H](C7=CC(=O)OC7)CC[C@]65O)C4)O[C@@H]3C)O[C@@H]2C)C[C@H](O)[C@@H]1O [digoxin]
- Effect on morphine permeability via MDCK II cells [2]: significant fall
